Common to all, as to type: cell-based
The test system of assay [1] is Human multiple myeloma cell RPMI 8226. In words: CCK-8 cell proliferation assay, RPMI 8226. Particulars: RPMI8226 cells, 72 hrs with drug, CCK-8, OD 450 nm. The protocol: (§1) The effect of samples on the proliferation of human tumor cells in vitro was determined by CCK-8 cell proliferation assay.
(§2) The cells were assayed through a method including the following steps: • 1) The cells were digested, counted, and prepared into a cell suspension in a corresponding culture medium (Table 1) (5×10^4 cells/ml for CFPAC-1 and RPMI 8226, and 3.5×10^4 cells/ml for rest cells). The cell suspension was added to each well of a 96-well plate in 100 μl/well. • 2) Then the 96-well plate was incubated for 24 hrs in an incubator at 37° C. and 5% CO2. • 3) The drug was diluted with the culture medium to the required working concentration. 100 μl of the corresponding drug containing medium was added to each well.
For orientation: Tetrazolium assays rely on reduction of a dye to a coloured formazan, in cell work by metabolically active cells.

The test system of assay [2] is Human colon cancer cell HCT-116. In words: CCK-8 cell proliferation assay, HCT-116. Particulars: HCT116 cells, 72 hrs with drug, CCK-8, OD 450 nm. The method, then: as §1, §2
The subject of assay [3] is Human lung adenocarcinoma cell A549. Kind of assay: CCK-8 cell proliferation assay, A549. Particulars: A549 cells, 72 hrs with drug, CCK-8, OD 450 nm. The method, then: as §1, §2
For assay [4], the system named is Human gastric cancer cell MKN45. In words: CCK-8 cell proliferation assay, MKN45. To be noted: MKN-45 cells, 72 hrs with drug, CCK-8, OD 450 nm. The method, then: as §1, §2
The subject of assay [5] is Human pancreatic cancer cell CFPAC-1. Kind of assay: CCK-8 cell proliferation assay, CFPAC-1. To be noted: CFPAC-1 cells, 72 hrs with drug, CCK-8, OD 450 nm. The protocol: as §1, §2
Assay [6] has as its system Human hepatoma cell HepG2. Kind of assay: CCK-8 cell proliferation assay, HepG2. To be noted: HepG2 cells, 72 hrs with drug, CCK-8, OD 450 nm. The protocol:
as §1, §2

The subject of assay [7] is Human esophageal cancer cell TE-1. In words: CCK-8 cell proliferation assay, TE-1. Particulars: TE-1 cells, 72 hrs with drug, CCK-8, OD 450 nm. The method, then: as §1, §2

Structures are written as SMILES. pIC50: −log10 of the molar value.

As to `N#CN=C(NCCCCCN1CCN(C(=O)c2cccs2)CC1)Nc1cccnc1` [BSS-PC018, 2-cyano-1-(5-(1-(2-thienylformyl)piperazine-4-yl)pentyl)-3-(3-pyridinyl)guanidine], the pIC50 in assay [1] is 7.55; in assay [2] it was 7.02; in assay [3] it was 7.13; in assay [4] it was 7.22; in assay [5] it was 7.46; in assay [6], 7.11. For the same molecule, in assay [7], the pIC50 is 7.07.

As for `N#CN=C(NCCCCCC1CCN(C(=O)c2cccs2)C1)Nc1cccnc1` (stereo not drawn) [BSS-PC043, 2-cyano-1-(5-(1-(2-thienylformyl)pyrrolidine-3-yl)pentyl)-3-(3-pyridinyl)guanidine], the pIC50 in assay [1] is 7.54; in assay [2], 7.29; in assay [3], 7.35; in assay [4], 7.16; in assay [5], 7.44; in assay [6] it was 7.08. The molecule also showed a pIC50 in assay [7] of 7.04.

Consider `O=C(/C=C/c1cccnc1)NCCCCC1CCN(C(=O)c2ccccc2)CC1` [FK866, reference compound], for which the pIC50 in assay [1] is 7.70; in assay [2], 7.04; in assay [3], 7.43; in assay [4], 7.41; in assay [5], 7.43; in assay [6], 7.00. This molecule had a pIC50 in assay [7] of 6.95.

With `N#CN=C(NCCCCCC1CCN(C(=O)c2occc2F)C1)Nc1ccncc1` (stereo not drawn) [BSS-PC048, 2-cyano-1-(5-(1-(3-fluoro-2-furylformyl)pyrrolidine-3-yl)pentyl)-3-(4-pyridinyl)guanidine], the pIC50 in assay [1] was 7.48; in assay [2], 7.22; in assay [3] it was 7.38; in assay [4] it was 7.47; in assay [5], 7.44; in assay [6] it was 7.33. The molecule further gave a pIC50 in assay [7] of 7.29.

Consider `N#CN=C(NCCCCCC1CCN(C(=O)C2Cc3ccccc3O2)C1)Nc1ccncc1` (stereo not drawn) [BSS-PC046, 2-cyano-1-(5-(1-(2-benzotetrahydrofurylfuryl)pyrrolidine-3-yl)pentyl)-3-(4-pyridinyl)guanidine], for which the negative-log IC50 (pIC50) in assay [1] is 7.35; in assay [2], 7.13; in assay [3], 7.15; in assay [4], 7.21; in assay [5], 7.38; in assay [6], 7.07. In addition, in assay [7], the pIC50 was 7.08.

As for `COc1cccc(OC)c1C(=O)N1CCN(CCCCCNC(=NC#N)Nc2cccnc2)CC1` [BSS-PC027, 2-cyano-1-(5-(1-(2,6-dimethoxybenzoyl)piperazine-4-yl)pentyl)-3-(3-pyridinyl)guanidine], the pIC50 in assay [1] is 7.40; in assay [2], 7.09; in assay [3], 7.20; in assay [4], 7.33; in assay [5], 7.31; in assay [6], 7.16. Also, the pIC50 in assay [7] was 7.04.

Consider `COc1cccc(OC)c1C(=O)N1CCC(CCCCCCNC(=NC#N)Nc2ccncc2)C1` (stereo not drawn) [BSS-PC055, 2-cyano-1-(6-(1-(2,6-dimethoxybenzoyl)pyrrolidine-3-yl)hexyl)-3-(4-pyridinyl)guanidine], for which the pIC50 in assay [1] was 7.39; in assay [2] it was 7.09; in assay [3], 7.30; in assay [4], 7.21; in assay [5] it was 7.33; in assay [6], 7.06. In assay [7], this molecule had a pIC50 of 7.05.

On to `N#CN=C(NCCCCCCC1CCN(C(=O)c2ccccc2)C1)Nc1ccncc1` (stereo not drawn) [BSS-PC054, 2-cyano-1-(6-((1-benzoyl)pyrrolidine-3-yl)hexyl)-3-(4-pyridinyl)guanidine], for which the pIC50 in assay [1] is 7.52; in assay [2], 7.28; in assay [3] it was 7.48; in assay [4] it was 7.31; in assay [5], 7.41; in assay [6], 7.24. For the same molecule, the pIC50 in assay [7] is 7.34.

Consider `N#CN=C(NCCCCCCC1CCN(C(=O)c2ccc[nH]2)C1)Nc1cccnc1` (stereo not drawn) [BSS-PC061, 2-cyano-1-(6-(1-(2-pyrrolylformyl)pyrrolidine-3-yl)hexyl)-3-(3-pyridinyl)guanidine], for which the pIC50 in assay [1] was 7.48; in assay [2] it was 7.06; in assay [3] it was 7.24; in assay [4] it was 7.19; in assay [5] it was 7.35; in assay [6] it was 6.91. This molecule also gave a pIC50 in assay [7] of 6.99.

For `N#CN=C(NCCCCCCC1CCN(C(=O)c2ccc[nH]2)C1)Nc1ccncc1` (stereo not drawn) [BSS-PC056, 2-cyano-1-(6-(1-(2-pyrrolylformyl)pyrrolidine-3-yl)hexyl)-3-(4-pyridinyl)guanidine], the pIC50 in assay [1] was 7.48; in assay [2], 7.14; in assay [3] it was 7.33; in assay [4], 7.41; in assay [5] it was 7.36; in assay [6] it was 7.41. The pIC50 in assay [7] was 7.38.

As to `N#CN=C(NCCCCCC1CCN(C(=O)c2[nH]ccc2F)C1)Nc1ccncc1` (stereo not drawn) [BSS-PC049, 2-cyano-1-(5-(1-(3-fluoro-2-pyrrolylformyl)pyrrolidine-3-yl)pentyl)-3-(4-pyridinyl)guanidine], the pIC50 is 7.54 in assay [1]; 7.26 in assay [2]; 7.46 in assay [3]; 7.38 in assay [4]; 7.51 in assay [5]; 7.24 in assay [6]. The pIC50 in assay [7] was 7.13.

Take `COc1cccc(OC)c1C(=O)N1CCC(CCCCCNC(=NC#N)Nc2cccnc2)C1` (stereo not drawn) [BSS-PC052, 2-cyano-1-(5-(1-(2,6-dimethoxybenzoyl)pyrrolidine-3-yl)pentyl)-3-(3-pyridinyl)guanidine]: the pIC50 is 7.62 in assay [1]; 7.24 in assay [2]; 7.54 in assay [3]; 7.40 in assay [4]; 7.54 in assay [5]; 7.36 in assay [6]. In addition, the pIC50 in assay [7] is 7.41.

With `N#CN=C(NCCCCCN1CCN(C(=O)c2ccco2)CC1)Nc1ccnc(F)c1` [BSS-PC013], the pIC50 was 7.55 in assay [1]; 7.00 in assay [2]; 7.32 in assay [3]; 7.14 in assay [4]; 7.42 in assay [5]; 7.03 in assay [6]. The pIC50 in assay [7] is 7.24.

`N#CN=C(NCCCCCCC1CCN(C(=O)C2CCCS2)C1)Nc1cccnc1` (stereo not drawn) [BSS-PC063, 2-cyano-1-(6-(1-(2-tetrahydrothienylformyl)pyrrolidine-3-yl)hexyl)-3-(3-pyridinyl)guanidine]: the pIC50 is 7.40 in assay [1]; 6.96 in assay [2]; 7.16 in assay [3]; 7.21 in assay [4]; 7.34 in assay [5]; 7.05 in assay [6]. This molecule also showed a pIC50 in assay [7] of 7.08.

For the molecule `N#CN=C(NCCCCCC1CCN(C(=O)c2cc3ccccc3[nH]2)C1)Nc1ccncc1` (stereo not drawn) [BSS-PC045, 2-cyano-1-(5-(1-(2-indolylformyl)pyrrolidine-3-yl)pentyl)-3-(4-pyridinyl)guanidine], the pIC50 in assay [1] was 7.28; in assay [2] it was 7.07; in assay [3], 7.10; in assay [4], 7.24; in assay [5] it was 7.19; in assay [6], 6.93. This molecule had a pIC50 in assay [7] of 7.05.

For orientation: pIC50 means the IC50 on a negative log10 scale, so that one unit is a factor of ten. Low readings indicate a high IC50, high ones a low IC50.

Source of the values: US12091385B2, “Pyridinylcyanoguanidine derivative and use thereof” (Rushi Biotech (Hangzhou) Co., Ltd, priority 2021, dated 2024).
